SMILES strings stand for the structures.

Assay [1] is described as follows: Antiproliferative effects against human SHEP cells after 72 hrs by Alamar blue assay. For orientation: The colour change of resazurin is a common sign of viable cells or microbes.
A further assay concerns MRC5. As to the kind of experiment: Antiproliferative effects against human MRC5 cells after 72 hrs by Alamar blue assay. The following applies: MRC5, 72 h.

One may read the IC50 as the point on the concentration scale where inhibition reaches its midpoint. A lower IC50 goes with inhibition by little substance. In assay [1], `Oc1ccc(C2=Cc3cc(CN4CCOCC4)c(O)cc3OC2)cc1` gave an IC50 of 86.8 µM.

`OCCNCc1cc2c(cc1O)OC=C(c1ccc(O)cc1)C2` registered an IC50 in assay [1] of 27.5 µM.

`Oc1ccc(C2=Cc3cc(CN4CCCCC4)c(O)cc3OC2)cc1`: 19.9 µM corresponded to half-maximal inhibition in assay [1] (IC50).

As to `OCCN1COc2cc3c(cc2C1)C=C(c1ccc(O)cc1)CO3`, in assay [1], it took 24.6 µM to reach half-maximal inhibition (IC50).

With `CCCCNCc1cc2c(cc1O)OC=C(c1ccc(O)cc1)C2`, the results for the IC50 (in the assay with MRC5; in assay [1]) were 33.8 µM and 4 µM, respectively. In the same order, the values of `CCCCN1COc2cc3c(cc2C1)C=C(c1ccc(O)cc1)CO3` are 33.8 µM and 3.9 µM. In assay [1], `CN1COc2cc3c(cc2C1)C=C(c1ccc(O)cc1)CO3` yielded an IC50 of 6.6 µM. As to `CCCCOCCCNCc1cc2c(cc1O)OC=C(c1ccc(O)cc1)C2`, inhibition in assay [1] was half-maximal at 5.1 µM (IC50). In the case of `Oc1ccc(C2=COc3cc(O)c(CNCc4ccccc4)cc3C2)cc1`, the figures for the IC50 (in the assay on MRC5; in assay [1]) were 40.9 µM and 5.7 µM, respectively. On to `CN(C)Cc1cc2c(cc1O)OC=C(c1ccc(O)cc1)C2`, for which the half-maximal inhibitory concentration (IC50) in assay [1] was 5.8 µM.

The compound `Oc1ccc(C2=Cc3cc(CN4CCOCC4)c(O)cc3OC2)cc1CN1CCOCC1` yielded an IC50 in assay [1] of 171 µM.

Turning to `CCCCCCCNCc1cc2c(cc1O)OC=C(c1ccc(O)cc1)C2`, the IC50 stood at 16 µM with MRC5 and 2.8 µM in assay [1]. Regarding `CCN(CC)Cc1cc2c(cc1O)OCC(c1ccc(O)cc1)=C2`, the IC50 in assay [1] is 35.7 µM. For the compound `Oc1ccc(C2=COc3cc(O)ccc3C2)cc1` [ISOPHENOXODIOL], the IC50 in the assay with MRC5 turned out to be 109 µM; in assay [1], 8.4 µM.

Consider `Oc1ccc(C2=Cc3cc4c(cc3OC2)OCN(Cc2ccccc2)C4)cc1`, for which the IC50 in assay [1] is 5.7 µM.

On to `Oc1ccc(C2=Cc3cc(CN4CCCCC4)c(O)cc3OC2)cc1CN1CCCCC1`, for which it took 4.2 µM to reach half-maximal inhibition in assay [1] (IC50). Consider `Oc1ccc(C2=COc3cc(O)c(CNCCc4ccccc4)cc3C2)cc1`, for which the IC50 with MRC5 is 36.7 µM; in assay [1], 1.8 µM. The matching figures for `Oc1ccc(C2=Cc3cc4c(cc3OC2)OCN(CCc2ccccc2)C4)cc1`: 197 µM and 0.7 µM. In assay [1], `Oc1ccc(C2=Cc3cc(CN4CCOCC4)c(O)c(CN4CCOCC4)c3OC2)cc1CN1CCOCC1` registered an IC50 of 69 µM. The same measure, in the same setting: the result for `CC(C)NCc1cc2c(cc1O)OC=C(c1ccc(O)cc1)C2` reads 15.1 µM; that for `C1=C(c2ccc3c(c2)CN(Cc2ccccc2)CO3)COc2cc3c(cc21)CN(Cc1ccccc1)CO3`, 3.7 µM.

For the compound `CCN(CC)Cc1cc(C2=Cc3cc(CN(CC)CC)c(O)cc3OC2)ccc1O`, the IC50 with MRC5 worked out at 21.2 µM; in assay [1], 3.4 µM. Take `C=CCN1COc2cc3c(cc2C1)C=C(c1ccc(O)cc1)CO3`: the IC50 in assay [1] came out at 9.1 µM. Regarding `CCCCCCCN1COc2cc3c(cc2C1)C=C(c1ccc(O)cc1)CO3`, the IC50 with MRC5 was found to be 11.9 µM; in assay [1], 1.4 µM. Take `CC(C)N1COc2cc3c(cc2C1)C=C(c1ccc(O)cc1)CO3`: the IC50 in assay [1] worked out at 12.2 µM.

Source of the values: ChEMBL document CHEMBL3632474, “Synthesis, biological evaluation and structure-activity relationship studies of isoflavene based Mannich bases with potent anti-cancer activity” (Bioorg Med Chem Lett, 2015).
